According to patent publication US9561231B2 (AbbVie Inc., priority 2012, dated 2017):
Like-named read-outs stand apart in the source and are kept apart here.

What was measured:
[1] = target: T1, first (BD1: amino acids K57-E168) bromodomain of BRD4 (Homo sapiens, UniProt O60885); experiment: TR-FRET bromodomain binding assay, BRD4 BD1; conditions: Ki calculated from IC50, probe Kd and probe concentration, read-out: TR-FRET Binding Ki: BRD4 (BDI_K57-E168)
T1 construct: His-tagged first (BD1: amino acids K57-E168)
Summary of the method: (§1)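 His-tagged BRD4 bromodomain competed against an Alexa647-labeled BET-inhibitor probe by TR-FRET in 20 mM sodium phosphate pH 6.0, 50 mM NaCl, 1 mM EDTA, 0.01% Triton X-100, 1 mM DTT.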

[2] = target: T2, second (BD2: amino acids E352-E168) bromodomain of BRD4 (Homo sapiens, UniProt O60885); experiment: TR-FRET bromodomain binding assay, BRD4 BD2; conditions: Ki calculated from IC50, probe Kd and probe concentration, read-out: TR-FRET Binding Ki: BRD4 (BDII_E352-M457)
T2 construct: protocol
Summary of the method: as §1

[3] = TR-FRET assay protocol (A-G, compound concentration range)
[4] = TR-FRET assay protocol (D, E or G) per compound

| Ki [1, 3] [µM] | Ki [2, 3] [µM] | Ki [1, 4] [µM] | Ki [2, 4] [µM] | Compound |
| --- | --- | --- | --- | --- |
| 8.17 | 3.19 |  |  | COc1cc(=O)n(C)nc1-c1ccccc1Oc1ccc(F)c(Cl)c1 [Example 34, 6-[2-(3-chloro-4-fluorophenoxy)phenyl]-5-methoxy-2-methylpyridazin-3(2H)-one] |
| 0.0618 | 0.0556 |  |  | CCOc1cc(=O)n(C)cc1-c1cc(NC(=O)c2ccc(OC(C)C)cc2)ccc1Oc1ccc(F)cc1F [Example 301, N-[4-(2,4-difluorophenoxy)-3-(4-ethoxy-1-methyl-6-oxo-1,6-dihydropyridin-3-yl)phenyl]-4-(propan-2-yloxy)benzamide] |
| 6.56 | 2.42 |  |  | CCOc1cncc(-c2cc(=O)n(C)nc2-c2ccccc2Oc2ccccc2)c1 [Example 190, 5-(5-ethoxypyridin-3-yl)-2-methyl-6-(2-phenoxyphenyl)pyridazin-3(2H)-one] |
|  |  | 0.362 | 0.165 | CCOc1cc(=O)n(C)cc1-c1cc(NS(=O)(=O)c2ccc3ccccc3c2)ccc1Oc1ccc(F)cc1F [Example 418, N-[4-(2,4-difluorophenoxy)-3-(4-ethoxy-1-methyl-6-oxo-1,6-dihydropyridin-3-yl)phenyl]naphthalene-2-sulfonamide] |
| 7.26 | 1.17 |  |  | CC(C)Oc1ccc(-c2cc(=O)n(C)nc2-c2ccccc2Oc2ccccc2)cn1 [Example 123, 2-methyl-6-(2-phenoxyphenyl)-5-[6-(propan-2-yloxy)pyridin-3-yl]pyridazin-3(2H)-one] |
| 0.41 | 0.327 |  |  | CN(C)C(=O)c1ccc(-c2cc(=O)n(C)nc2-c2ccccc2Oc2ccccc2)cc1 [Example 108, N,N-dimethyl-4-[1-methyl-6-oxo-3-(2-phenoxyphenyl)-1,6-dihydropyridazin-4-yl]benzamide] |
| 3.95 | 6.16 |  |  | CCN(CC)C(=O)c1cc(-c2cc(=O)n(C)nc2-c2ccccc2Oc2ccccc2)ccc1F [Example 181, N,N-diethyl-2-fluoro-5-[1-methyl-6-oxo-3-(2-phenoxyphenyl)-1,6-dihydropyridazin-4-yl]benzamide] |
| 7.02 | 11.8 |  |  | Cc1ccncc1-c1cc(=O)n(C)nc1-c1ccccc1Oc1ccccc1 [Example 207, 2-methyl-5-(4-methylpyridin-3-yl)-6-(2-phenoxyphenyl)pyridazin-3(2H)-one] |
| 4.32 | 4.06 |  |  | COC(C)c1cccc(-c2cc(=O)n(C)nc2-c2ccccc2Oc2ccccc2)c1 (stereo not drawn) [Example 134, 5-[3-(1-methoxyethyl)phenyl]-2-methyl-6-(2-phenoxyphenyl)pyridazin-3(2H)-one] |
| 1.67 | 1.62 |  |  | CC(C)CNC(=O)c1ccc(-c2cc(=O)n(C)nc2-c2ccccc2Oc2ccccc2)cc1 [Example 170, 4-[1-methyl-6-oxo-3-(2-phenoxyphenyl)-1,6-dihydropyridazin-4-yl]-N-(2-methylpropyl)benzamide] |
| 1.04 | 0.395 |  |  | CN(C)c1ncc(-c2cc(=O)n(C)nc2-c2ccccc2Oc2ccccc2)cn1 [Example 192, 5-[2-(dimethylamino)pyrimidin-5-yl]-2-methyl-6-(2-phenoxyphenyl)pyridazin-3(2H)-one] |
| 0.209 | 0.0472 |  |  | CCOc1cc(=O)n(C)cc1-c1cc(NC(=O)c2ccccc2CCc2ccccc2)ccc1Oc1ccc(F)cc1F [Example 302, N-[4-(2,4-difluorophenoxy)-3-(4-ethoxy-1-methyl-6-oxo-1,6-dihydropyridin-3-yl)phenyl]-2-(2-phenylethyl)benzamide] |
| > 13 | 5.66 |  |  | COc1cc(-c2cc(=O)n(C)nc2-c2ccccc2Oc2ccccc2)ccc1F [Example 199, 5-(4-fluoro-3-methoxyphenyl)-2-methyl-6-(2-phenoxyphenyl)pyridazin-3(2H)-one] |
| 0.854 | 0.764 |  |  | CN1CCN(c2cc(-c3cc(=O)n(C)nc3-c3ccccc3Oc3ccccc3)ccn2)CC1 [Example 174, 2-methyl-5-[2-(4-methylpiperazin-1-yl)pyridin-4-yl]-6-(2-phenoxyphenyl)pyridazin-3(2H)-one] |
| 8.33 | 13.4 |  |  | CC(C)Cc1ccc(-c2cc(=O)n(C)nc2-c2ccccc2Oc2ccccc2)cc1 [Example 96, 2-methyl-5-[4-(2-methylpropyl)phenyl]-6-(2-phenoxyphenyl)pyridazin-3(2H)-one] |

The next lines start with the compound.

| Compound | Ki [1, 3] [µM] | Ki [2, 3] [µM] | Ki [1, 4] [µM] | Ki [2, 4] [µM] |
| --- | --- | --- | --- | --- |
| CCN(CC)C(=O)c1cc(F)cc(-c2cc(=O)n(C)nc2-c2ccccc2Oc2ccccc2)c1 [Example 167, N,N-diethyl-3-fluoro-5-[1-methyl-6-oxo-3-(2-phenoxyphenyl)-1,6-dihydropyridazin-4-yl]benzamide] | 5.43 | 7.37 |  |  |
| Cn1nc(-c2ccccc2Oc2ccccc2)c(-c2ccc(OCC(F)(F)F)nc2)cc1=O [Example 140, 2-methyl-6-(2-phenoxyphenyl)-5-[6-(2,2,2-trifluoroethoxy)pyridin-3-yl]pyridazin-3(2H)-one] | > 13 | 8.21 |  |  |
| CCS(=O)(=O)Nc1ccc(OCC2CC2)c(-c2ccc(=O)n(C)c2)c1C [Example 365, N-[4-(cyclopropylmethoxy)-2-methyl-3-(1-methyl-6-oxo-1,6-dihydropyridin-3-yl)phenyl]ethanesulfonamide] | 1.35 | > 4.44 |  |  |
| COc1cc(=O)n(C)nc1-c1ccccc1OCC1CCOCC1 [Example 47, 5-methoxy-2-methyl-6-[2-(tetrahydro-2H-pyran-4-ylmethoxy)phenyl]pyridazin-3(2H)-one] | 5.28 | > 22.2 |  |  |
| Cn1nc(-c2ccccc2Oc2ccccc2)c(-c2ccc(C(=O)N3CCCC3)cc2)cc1=O [Example 183, 2-methyl-6-(2-phenoxyphenyl)-5-[4-(pyrrolidin-1-ylcarbonyl)phenyl]pyridazin-3(2H)-one] | 0.256 | 0.166 |  |  |
| Cn1nc(-c2ccccc2Oc2ccccc2)c(-c2ccc3c(ccn3C)c2)cc1=O [Example 208, 2-methyl-5-(1-methyl-1H-indol-5-yl)-6-(2-phenoxyphenyl)pyridazin-3(2H)-one] | 0.901 | 1.51 |  |  |
| Cc1cc(-c2cc(=O)n(C)nc2-c2ccccc2Oc2ccccc2)cnc1N1CCOCC1 [Example 166, 2-methyl-5-[5-methyl-6-(morpholin-4-yl)pyridin-3-yl]-6-(2-phenoxyphenyl)pyridazin-3(2H)-one] | 0.705 | 1.01 |  |  |
| CC(=O)Nc1cccc(-c2cc(=O)n(C)nc2-c2ccccc2Oc2ccccc2)c1 [Example 106, N-{3-[1-methyl-6-oxo-3-(2-phenoxyphenyl)-1,6-dihydropyridazin-4-yl]phenyl}acetamide] | 0.176 | 0.925 |  |  |
| Cn1nc(-c2ccccc2Oc2ccccc2)c(-c2ccc(C=O)cc2)cc1=O [Example 65, 4-[1-methyl-6-oxo-3-(2-phenoxyphenyl)-1,6-dihydropyridazin-4-yl]benzaldehyde] | 0.797 | 0.14 |  |  |
| CNC(=O)c1cncc(-c2cc(=O)n(C)nc2-c2ccccc2Oc2ccccc2)c1 [Example 122, N-methyl-5-[1-methyl-6-oxo-3-(2-phenoxyphenyl)-1,6-dihydropyridazin-4-yl]pyridine-3-carboxamide] | 8.56 | 4.52 |  |  |
| CCOc1cc(=O)n(C)cc1-c1cc(NS(=O)(=O)CC)ccc1OC1Cc2ccccc2C1 [Example 394, N-[4-(2,3-dihydro-1H-inden-2-yloxy)-3-(4-ethoxy-1-methyl-6-oxo-1,6-dihydropyridin-3-yl)phenyl]ethanesulfonamide] |  |  | 0.272 | 0.516 |
| CC(C)Oc1ncccc1-c1cc(=O)n(C)nc1-c1ccccc1Oc1ccccc1 [Example 130, 2-methyl-6-(2-phenoxyphenyl)-5-[2-(propan-2-yloxy)pyridin-3-yl]pyridazin-3(2H)-one] | > 13 | 17.1 |  |  |
| Cn1nc(-c2ccccc2Oc2ccccc2)c(-c2ccc(N3CCNCC3)nc2)cc1=O [Example 151, 2-methyl-6-(2-phenoxyphenyl)-5-[6-(piperazin-1-yl)pyridin-3-yl]pyridazin-3(2H)-one] | 0.4 | 0.258 |  |  |
| CN(C(=O)c1cccc(-c2cc(=O)n(C)nc2-c2ccccc2Oc2ccccc2)c1)C1CCCCC1 [Example 148, N-cyclohexyl-N-methyl-3-[1-methyl-6-oxo-3-(2-phenoxyphenyl)-1,6-dihydropyridazin-4-yl]benzamide] | > 13 | 19.7 |  |  |
| Cn1nc(-c2ccccc2-c2ccccc2)ccc1=O [Example 52, 6-(biphenyl-2-yl)-2-methylpyridazin-3(2H)-one] | 9 | 10.5 |  |  |
| COC(=O)c1ccc(-c2cc(=O)n(C)nc2-c2ccccc2Oc2ccccc2)cc1 [Example 102, methyl 4-[1-methyl-6-oxo-3-(2-phenoxyphenyl)-1,6-dihydropyridazin-4-yl]benzoate] | 2.6 | 0.96 |  |  |
| CCOc1cc(=O)n(C)cc1-c1cc(NS(=O)(=O)CC)ccc1OC1CCN(C(C)=O)CC1 [Example 389, N-{4-[(1-acetylpiperidin-4-yl)oxy]-3-(4-ethoxy-1-methyl-6-oxo-1,6-dihydropyridin-3-yl)phenyl}ethanesulfonamide] |  |  | 1.26 | 3.99 |
| Cn1nc(-c2ccccc2Oc2ccccc2)c(-c2ccc(C(=O)NCc3ccccc3)cc2)cc1=O [Example 182, N-benzyl-4-[1-methyl-6-oxo-3-(2-phenoxyphenyl)-1,6-dihydropyridazin-4-yl]benzamide] | 0.531 | 0.174 |  |  |
